ChEMBL document CHEMBL1201862, “PubChem BioAssay data set” (2004)
Active and inactive are the calls of the source. Cut-off read from the data, not from the text of the source: actives have a measured IC50 and inactives only a lower limit.

How the values were obtained:
Assay type in all cases: functional
[1] = target: T1, Caspase-3 (Homo sapiens, UniProt P42574);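 note: Dose-response selectivity test against caspase-3 for candidate inhibitors of sentrin-specific proteases (SENPs)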
T1 sequence (P42574 whole entry): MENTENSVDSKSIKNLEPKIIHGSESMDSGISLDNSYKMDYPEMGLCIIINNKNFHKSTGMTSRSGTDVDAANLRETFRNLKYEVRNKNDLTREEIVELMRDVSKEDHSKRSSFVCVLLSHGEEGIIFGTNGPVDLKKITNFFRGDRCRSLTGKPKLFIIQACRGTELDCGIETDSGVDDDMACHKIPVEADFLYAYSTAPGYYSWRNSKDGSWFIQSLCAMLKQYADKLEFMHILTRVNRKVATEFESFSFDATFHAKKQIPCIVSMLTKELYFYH

[2] = target: T2, Sentrin-specific protease 6 (Homo sapiens, UniProt Q9GZR1);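 note: Luminescence-based dose-response confirmatory assay of SENP6 inhibition, following up an ultra-high-throughput screen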
T2 sequence (Q9GZR1 whole entry): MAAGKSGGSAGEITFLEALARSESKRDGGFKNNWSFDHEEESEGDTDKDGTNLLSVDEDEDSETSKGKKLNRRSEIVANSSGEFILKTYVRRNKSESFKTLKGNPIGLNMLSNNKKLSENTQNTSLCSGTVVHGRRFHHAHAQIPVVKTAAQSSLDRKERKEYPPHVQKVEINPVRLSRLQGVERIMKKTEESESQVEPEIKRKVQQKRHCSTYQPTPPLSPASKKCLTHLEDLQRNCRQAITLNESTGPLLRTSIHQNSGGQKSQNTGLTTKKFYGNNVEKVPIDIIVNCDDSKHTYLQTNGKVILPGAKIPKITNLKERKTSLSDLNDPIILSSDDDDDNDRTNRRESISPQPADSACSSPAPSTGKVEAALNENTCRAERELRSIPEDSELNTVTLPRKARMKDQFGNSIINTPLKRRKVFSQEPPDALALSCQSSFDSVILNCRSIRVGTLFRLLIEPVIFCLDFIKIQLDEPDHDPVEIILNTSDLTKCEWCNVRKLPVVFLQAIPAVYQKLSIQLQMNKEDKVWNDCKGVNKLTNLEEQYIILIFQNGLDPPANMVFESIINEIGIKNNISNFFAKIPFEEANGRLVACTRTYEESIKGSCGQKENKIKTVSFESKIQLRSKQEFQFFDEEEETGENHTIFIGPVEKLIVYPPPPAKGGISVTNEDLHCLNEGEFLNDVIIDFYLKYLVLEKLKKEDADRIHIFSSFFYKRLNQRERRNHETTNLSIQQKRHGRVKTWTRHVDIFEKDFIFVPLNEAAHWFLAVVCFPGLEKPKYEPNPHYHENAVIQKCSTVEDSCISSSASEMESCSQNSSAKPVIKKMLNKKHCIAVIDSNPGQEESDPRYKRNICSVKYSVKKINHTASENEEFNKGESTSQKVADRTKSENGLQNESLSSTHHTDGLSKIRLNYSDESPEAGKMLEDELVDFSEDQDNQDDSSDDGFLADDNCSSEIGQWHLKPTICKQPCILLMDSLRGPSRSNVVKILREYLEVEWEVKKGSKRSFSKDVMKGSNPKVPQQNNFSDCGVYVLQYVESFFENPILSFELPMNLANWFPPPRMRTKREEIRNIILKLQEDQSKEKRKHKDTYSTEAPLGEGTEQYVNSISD

[3] = target: T3, Sentrin-specific protease 8 (Homo sapiens, UniProt Q96LD8);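 note: luminescence read-out of SENP8 inhibition, dose-response confirmation following an ultra-high-throughput screen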
T3 sequence (Q96LD8 whole entry): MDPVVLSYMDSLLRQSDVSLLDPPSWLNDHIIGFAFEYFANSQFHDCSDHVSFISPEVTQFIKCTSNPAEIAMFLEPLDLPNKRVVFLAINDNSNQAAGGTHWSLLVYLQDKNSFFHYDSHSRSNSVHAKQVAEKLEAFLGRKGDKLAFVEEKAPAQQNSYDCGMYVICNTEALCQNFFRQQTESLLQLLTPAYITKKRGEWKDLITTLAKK

[4] = target: T4, Sentrin-specific protease 7 (Homo sapiens, UniProt Q9BQF6);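 note: Luminescence-based dose-response confirmation of ultra-high-throughput screening hits, measuring inhibition of SENP7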
T4 sequence (Q9BQF6 whole entry): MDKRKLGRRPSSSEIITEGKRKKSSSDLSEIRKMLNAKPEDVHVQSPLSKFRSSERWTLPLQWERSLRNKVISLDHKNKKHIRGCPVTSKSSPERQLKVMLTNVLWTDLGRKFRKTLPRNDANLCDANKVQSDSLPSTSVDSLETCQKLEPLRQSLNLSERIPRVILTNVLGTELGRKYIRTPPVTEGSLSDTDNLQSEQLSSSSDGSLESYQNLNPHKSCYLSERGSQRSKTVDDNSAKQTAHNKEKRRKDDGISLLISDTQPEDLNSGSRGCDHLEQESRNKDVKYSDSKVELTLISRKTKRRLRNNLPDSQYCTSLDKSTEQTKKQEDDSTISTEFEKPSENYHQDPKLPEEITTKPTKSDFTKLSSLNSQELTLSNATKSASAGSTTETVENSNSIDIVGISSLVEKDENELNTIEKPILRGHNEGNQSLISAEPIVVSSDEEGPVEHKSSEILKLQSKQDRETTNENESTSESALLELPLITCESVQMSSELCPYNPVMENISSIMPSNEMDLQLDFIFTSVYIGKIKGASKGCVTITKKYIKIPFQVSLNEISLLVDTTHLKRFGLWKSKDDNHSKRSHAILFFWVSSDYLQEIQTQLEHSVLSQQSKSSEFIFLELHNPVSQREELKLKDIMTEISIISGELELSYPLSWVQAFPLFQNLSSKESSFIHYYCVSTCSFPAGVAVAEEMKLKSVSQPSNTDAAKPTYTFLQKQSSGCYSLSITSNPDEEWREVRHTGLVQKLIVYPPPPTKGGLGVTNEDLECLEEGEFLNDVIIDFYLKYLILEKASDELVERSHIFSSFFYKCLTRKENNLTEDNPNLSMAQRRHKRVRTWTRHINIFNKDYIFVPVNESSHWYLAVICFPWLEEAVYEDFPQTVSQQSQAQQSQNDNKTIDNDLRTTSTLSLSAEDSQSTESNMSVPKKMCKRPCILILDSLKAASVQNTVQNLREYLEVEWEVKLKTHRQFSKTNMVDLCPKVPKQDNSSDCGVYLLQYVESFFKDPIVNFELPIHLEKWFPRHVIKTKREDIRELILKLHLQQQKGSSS

| SMILES | IC50 [1] | IC50 [2] | IC50 [3] | IC50 [4] |
| --- | --- | --- | --- | --- |
| O=[N+]([O-])c1ccc(O)c(C2=NNC(c3ccccc3F)C2)c1 (stereo not drawn) | 68.6 µM (active) | 43.5 µM (active) | 54.5 µM (active) | 41.6 µM (active) |
| Cc1oc2c(c1C(=O)N1CCC(C)CC1)C(=O)c1ccccc1C2=O | 10.2 µM (active) | 13.7 µM (active) | 23.6 µM (active) | 40.6 µM (active) |
